Experimental data: ChEMBL document CHEMBL2177061, “Factors influencing the specificity of inhibitor binding to the human and malaria parasite dihydroorotate dehydrogenases” (J Med Chem, 2012)
Changes are numbered by the printed parent chain.

Tests used:
[1] = system: T1, Dihydroorotate dehydrogenase (quinone), mitochondrial (Plasmodium falciparum (isolate 3D7)), Q08210 [C276Y]; test: Inhibition of Plasmodium falciparum […] dehydrogenase C276Y mutant expressed in Escherichia coli BL21(DE3) using […] as substrate at 100 uM by DCIP-based colorimetric analysis
T1 sequence (whole entry): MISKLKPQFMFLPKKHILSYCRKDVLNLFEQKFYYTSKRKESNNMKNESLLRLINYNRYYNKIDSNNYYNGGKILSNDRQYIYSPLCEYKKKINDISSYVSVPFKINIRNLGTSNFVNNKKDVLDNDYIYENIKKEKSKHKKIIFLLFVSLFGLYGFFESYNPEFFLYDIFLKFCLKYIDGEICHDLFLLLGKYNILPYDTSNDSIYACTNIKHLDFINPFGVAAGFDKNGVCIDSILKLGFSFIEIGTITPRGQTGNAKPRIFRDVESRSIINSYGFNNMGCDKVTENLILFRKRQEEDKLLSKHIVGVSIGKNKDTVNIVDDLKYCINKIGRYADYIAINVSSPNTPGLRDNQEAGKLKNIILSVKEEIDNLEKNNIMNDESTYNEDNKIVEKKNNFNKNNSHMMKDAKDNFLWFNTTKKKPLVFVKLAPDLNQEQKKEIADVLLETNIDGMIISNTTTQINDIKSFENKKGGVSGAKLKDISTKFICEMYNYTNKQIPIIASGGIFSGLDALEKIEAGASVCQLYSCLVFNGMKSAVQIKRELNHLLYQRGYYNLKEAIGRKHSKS

[2] = system: T2, Dihydroorotate dehydrogenase (quinone), mitochondrial (Plasmodium falciparum (isolate 3D7)), Q08210 [H185A]; test: Inhibition of Plasmodium falciparum […] dehydrogenase H185A mutant expressed in Escherichia coli BL21(DE3) using […] as substrate at 100 uM by DCIP-based colorimetric analysis
T2 sequence (whole entry): T1 sequence (whole entry) with H185A, Y276C

SMILES: CCc1cc(O)n2nc(SCc3cc(Cl)ccc3Cl)nc2n1
- inhibition [1]: < 50%
- inhibition [2]: < 50%
